Measured values reported in US20240207414A1, “DISULFIDE-BASED PRODRUG COMPOUND” (Ludwig-Maximilians-Universitat Munchen, priority 2021, published 2024).
Values belong to the molecule of their own block, whether it stands above or below them.

Legend:
[1] = Chemical reductant assay: GSH challenge (cell-free); assay type: physicochemical; settings: aq. TE buffer pH 7.4, 37° C., 6 h, GSH 0.01-10 mM
Source text: (§1) This assay (see FIG. 1) examined the stability of disulfide-based reduction-triggered compounds of the invention when exposed to monothiol reductants, primarily the major physiological cellular monothiol GSH, and dithiol reductants like the disulfide reductant dithiothreitol (DTT), as evaluated in a cell-free assay, to determine whether these compounds can be useful for selective release.
(§2) Assay Conditions: A black 96-well plate with black bottom was charged with solutions of fluorophore-releasing reduction-triggered probes that are compounds of the invention (P1, P2, P3, P4 and P5) or that are not compounds of the invention and reveal the performance of prior art systems (X19) (80 μL; 25 μM in aq. TE buffer (pH 7.4) and 1.25% vol DMSO). Solutions of challenge species chosen from the monothiol glutathione (GSH, 0.1-50 mM) and the dithiol reductant dithiothreitol (DTT, 0.1-50 mM) or phosphine reductant tris-(2-carboxyethyl) phosphine (TCEP); (20 μL; 1 mM in aq. TE buffer (pH 7.4) were added and the reaction mixtures were incubated at 37° C. for 6 h while measuring fluorescence intensity over time [F(t)] using a BMG Labtech FLUOstar Omega platereader (λexc=355 nm, Δem=530 nm for PQ-OH-releasing probes X19, P1 and P2; Δexc=485 nm, Δem=530 nm for MF-OH-releasing probes P3 and P4.
(§3) Data Representation: F^max is the maximum possible fluorescence increase corresponding to complete reduction-triggered cargo release, i.e. the fluorescence intensity increase from time zero to signal plateau under TCEP incubation PQ-OH-releasing probes. F(t)/F^max(t) thus gives the timecourse measurements of fluorescence intensity, as a fraction of the maximum possible fluorescence signal. F^sat is the endpoint fluorescence intensity increase for each condition, ie. F^sat=(F(6 h)). F^sat/F^max thus gives the assay endpoint fluorescence intensity increase, as a fraction of the maximum possible fluorescence signal. In the GSH timecourse measurements shown in FIG. 1, all datasets annotated with concentrations only (0.01-10 mM) refer to GSH challenges, while datasets for TCEP positive control (100 μM) and no-reductant control (blank) are shown for comparison. The dose-response plots show F^sat/F^max for the different ratios between probe and GSH or probe and DTT concentrations, with a logarithmic horizontal scale.

[2] = Chemical reductant assay: DTT challenge (cell-free); assay type: physicochemical; settings: aq. TE buffer pH 7.4, 37° C., 6 h
Source text: as §1, §2, §3

HeLa, A549 and MEF cells = assay: Cellular reduction assay (FIG. 3); assay type: cell-based, human, mouse; settings: 100 μM, 1% vol DMSO, cells under ordinary conditions
Method: Assay Conditions: Cells were cultured under standard conditions (Gao, L. et al. Cell Chemical Biology 2021, 28, 1-14. https://doi.org/10.1016/j.chembiol.2020.11.007), left to adhere for 24 h, then compounds were added to 100 μM with 1% vol DMSO. Fluorescence timecourse measurements were acquired as in the chemoreductant assay, with all conditions in triplicates.
Data Representation: F(t)-F(0) is the fluorescence intensity signal increase as compared to time zero signal (fluorescence intensity immediately following compound addition, before probe activation can occur), in arbitrary units although with the same detection settings for all probes releasing the same cargo. This corresponds to reduction-triggered cargo release. “ctrf” indicates cells not treated with probes, as a negative control.

[3] = test system: control MEF cells (fl/fl); assay: In vitro TrxR knockout assay: control MEF (fl/fl) viability; assay type: cell-based; settings: Mus musculus, 48 h, resazurin, read-out: IC50 antiproliferation / cell viability
Method: (§4) Assay Conditions: TrxR1 knockout and reference mouse embryonic fibroblasts (MEF) were a gift by Marcus Conrad (LMU Munich) and initially isolated from conditional TrxR1 knockout mouse embryos, were immortalised by lentiviral transduction. In vitro deletion of TrxR1 was achieved by Tat-Cre induced recombination and verified by PCR and Immunoblotting for TrxR1 as described in Conrad et al. Cancer Res. 2010, 70, 22, 9505. MEF knockout (ko) and control (fl/fl) cells were cultured under standard conditions, left to adhere for 24 h, then P17 or P18 were added from DMSO stock solution and adjusted to 1% vol DMSO. Cells were incubated under standard conditions for 48 h, then 0.20 volume equivalents of a solution of resazurin in PBS (0.15 mg/mL) were added and incubated for 3 h, then fluorescence (ex 544 nm, em 590 nm) was detected on a fluorescence platereader. Cell viability (%) is calculated relative to a control experiment with no P17 or P18 added, from the fluorescence values.

[4] = test system: MEF cells with genetic knockout of TrxR (TrxR ko); assay: In vitro TrxR knockout assay: TrxR1 knockout MEF viability; assay type: cell-based, mouse; settings: MEF TrxR ko versus fl/fl, 48 h, resazurin
Method: as §4

A549 cells = assay: In vitro cell viability assay P19, P20 (resazurin); assay type: cell-based, human; settings: 48 h
Method: (§5) Assay Conditions: Cells (A549 cells for P19 and P20; HeLa cells for P21 and P22) were cultured under standard conditions (Gao, L. et al. Cell Chemical Biology 2021, 28, 1-14. https://doi.org/10.1016/j.chembiol.2020.11.007), left to adhere for 24 h, then P19, P20, P21 or P22 were added from DMSO stock solution and adjusted to 1% vol DMSO. Cells were incubated under standard conditions for 48 h, then 0.20 volume equivalents of a solution of resazurin in PBS (0.15 mg/mL) were added and incubated for 3 hours, then fluorescence (ex 544 nm, em 590 nm) was detected on a fluorescence platereader. Cell viability (%) was calculated relative to a control experiment (no compound) from the fluorescence values.

HeLa cells = assay: In vitro cell viability assay P21, P22 (resazurin); assay type: cell-based, human; settings: 48 h
Method: as §5

- cargo release (fluorescence) when challenged with monothiol reductant GSH [1]: do not release cargo
SMILES: COc1ccc2c(c1)Oc1cc(OC(=O)N3CCC[C@@H]4CSSC[C@H]43)ccc1C21OC(=O)c2ccccc21 (mixture of isomers) [Compound P3, 3′-methoxy-3-oxo-3H-spiro[isobenzofuran-1,9′-xanthen]-6′-yl-(trans)-hexahydro-[1,2]dithiino[4,5-b]pyridine-1(2H)-carboxylate]
- activation / cargo release by dithiol reductant DTT [2]: efficiently activated by dithiol-type reductants

- cargo release (fluorescence) when challenged with monothiol reductant GSH [1]: do not release cargo
SMILES: COc1ccc2c(c1)Oc1cc(OC(=O)N3CCC[C@@H]4CSSC[C@@H]43)ccc1C21OC(=O)c2ccccc21 (mixture of isomers) [Compound P4, 3′-methoxy-3-oxo-3H-spiro[isobenzofuran-1,9′-xanthen]-6′-yl-cis-hexahydro-[1,2]dithiino[4,5-b]pyridine-1(2H)-carboxylate]
- activation / cargo release by dithiol reductant DTT [2]: efficiently activated by dithiol-type reductants
- cargo release inside cells (fluorescence signal increase over time) (HeLa, A549 and MEF cells): do not release cargo inside cells under ordinary conditions

SMILES: O=C(Oc1ccc(Cl)cc1-c1nc2ccc(Cl)cc2c(=O)[nH]1)N1CCN[C@@H]2CSSC[C@H]21 (racemic) [Compound P5, 4-chloro-2-(6-chloro-4-oxo-3,4-dihydroquinazolin-2-yl)phenyl trans-hexahydro-[1,2]dithiino[4,5-b]pyrazine-1(2H)-carboxylate]
- cargo release (fluorescence) when challenged with monothiol reductant GSH [1]: does release cargo very efficiently
- activation / cargo release by dithiol reductant DTT [2]: unusually strong and fast response
- cargo release inside cells (fluorescence signal increase over time) (HeLa, A549 and MEF cells): substantially release cargo inside cells cultured under ordinary conditions

SMILES: COc1cc2cc(C(=O)N3C[C@@H](CCl)c4c3cc(OC(=O)N3CCN(C)[C@@H]5CSSCC53)c3ccccc43)[nH]c2c(OC)c1OC (mixture of isomers) [Compound P17, (S)-1-(chloromethyl)-3-(5,6,7-trimethoxy-1H-indole-2-carbonyl)-2,3-dihydro-1H-benzo[e]indol-5-yl (cis)-4-methylhexahydro-[1,2]dithiino[4,5-b]pyrazine-1(2H)-carboxylate]
- IC50 [3]: ~100 nM
- activation / cytotoxicity in TrxR ko cells compared to control cells [4]: activated less effectively

SMILES: COc1cc2cc(C(=O)N3C[C@@H](CCl)c4c3cc(OC(=O)N3CCN(C(=O)CCC(=O)N5CCN(C)CC5)[C@@H]5CSSCC53)c3ccccc43)[nH]c2c(OC)c1OC (mixture of isomers) [Compound P18, (S)-1-(chloromethyl)-3-(5,6,7-trimethoxy-1H-indole-2-carbonyl)-2,3-dihydro-1H-benzo[e]indol-5-yl (cis)-4-(4-(4-methylpiperazin-1-yl)-4-oxobutanoyl)hexahydro-[1,2]dithiino[4,5-b]pyrazine-1(2H)-carboxylate]
- IC50 [3]: ~100 nM
- activation / cytotoxicity in TrxR ko cells compared to control cells [4]: activated less effectively

SMILES: CCc1c2c(nc3ccc(OC(=O)N4CCN[C@@H]5CSSC[C@@H]54)cc13)-c1cc3c(c(=O)n1C2)COC(=O)[C@]3(O)CC (racemic) [Compound P19, (R)-4,11-diethyl-4-hydroxy-3,14-dioxo-3,4,12,14-tetrahydro-1H-pyrano[3′,4′:6,7]indolizino[1,2-b]quinolin-9-yl (cis)-hexahydro-[1,2]dithiino[4,5-b]pyrazine-1(2H)-carboxylate]
- tolerability in cells compared with Irinotecan (A549 cells): equally well-tolerated in cells as the approved cancer prodrug Irinotecan
- toxicity to cells compared with SN-38 (A549 cells): significantly less toxic to cells than the parent compound

SMILES: CCc1c2c(nc3ccc(OC(=O)N4CCN(C(=O)CCC(=O)N5CCN(C)CC5)[C@@H]5CSSC[C@@H]54)cc13)-c1cc3c(c(=O)n1C2)COC(=O)[C@]3(O)CC (racemic) [Compound P20, (R)-4,11-diethyl-4-hydroxy-3,14-dioxo-3,4,12,14-tetrahydro-1H-pyrano[3′,4′:6,7]indolizino[1,2-b]quinolin-9-yl (cis)-4-(4-(4-methylpiperazin-1-yl)-4-oxobutanoyl)hexahydro-[1,2]dithiino[4,5-b]pyrazine-1(2H)-carboxylate]
- tolerability in cells compared with Irinotecan (A549 cells): equally well-tolerated in cells as the approved cancer prodrug Irinotecan
- toxicity to cells compared with SN-38 (A549 cells): significantly less toxic to cells than the parent compound

SMILES: CC[C@@]1(O)C(=O)OCc2c1cc1n(c2=O)Cc2cc3c(CN(C)C)c(OC(=O)N4CCCC5CSSC[C@H]54)ccc3nc2-1 (mixture of isomers) [Compound P21, (R)-10-((dimethylamino)methyl)-4-ethyl-4-hydroxy-3,14-dioxo-3,4,12,14-tetrahydro-1H-pyrano[3′,4′:6,7]indolizino[1,2-b]quinolin-9-yl (cis)-hexahydro-[1,2]dithiino[4,5-b]pyridine-1(2H)-carboxylate]
- tolerability in cells compared with Irinotecan (HeLa cells): equally well-tolerated in cells as the approved cancer prodrug Irinotecan
- toxicity to cells compared with SN-38 (HeLa cells): significantly less toxic to cells than the parent compound

SMILES: CC[C@@]1(O)C(=O)OCc2c1cc1n(c2=O)Cc2cc3c(CN(C)C)c(OC(=O)N4CCCC5CSSC[C@@H]54)ccc3nc2-1 (mixture of isomers) [Compound P22, (R)-10-((dimethylamino)methyl)-4-ethyl-4-hydroxy-3,14-dioxo-3,4,12,14-tetrahydro-1H-pyrano[3′,4′:6,7]indolizino[1,2-b]quinolin-9-yl (trans)-hexahydro-[1,2]dithiino[4,5-b]pyridine-1(2H)-carboxylate]
- tolerability in cells compared with Irinotecan (HeLa cells): equally well-tolerated in cells as the approved cancer prodrug Irinotecan
- toxicity to cells compared with SN-38 (HeLa cells): significantly less toxic to cells than the parent compound
